According to article PMC10893271, “Polymeric Nanoparticles as Oral and Intranasal Peptide Vaccine Delivery Systems: The Role of Shape and Conjugation” (Vaccines, 2024):
No end group written: not given here.

Molecular target: T1, bovine trypsin (Bos taurus, UniProt P00760)
T1 sequence (P00760 24-246): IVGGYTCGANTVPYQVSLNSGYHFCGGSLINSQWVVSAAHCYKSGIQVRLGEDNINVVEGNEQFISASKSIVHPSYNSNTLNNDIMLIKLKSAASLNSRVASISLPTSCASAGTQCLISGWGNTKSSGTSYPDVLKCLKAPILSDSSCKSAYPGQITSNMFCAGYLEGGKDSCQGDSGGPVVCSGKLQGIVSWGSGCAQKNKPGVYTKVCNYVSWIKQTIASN
Experiment: In vitro stability against proteolysis
Conditions: bovine trypsin (1000 U/mL stock, 100 µL) with 1 mM CaCl2 in PBS + 400 µL antigen solution (PJ8 1.25 mg/mL in PBS); 37 °C; HPLC with calibration curve

## AKFVAAWTLKAAAQAEDKVKQSREAKKQVEKALKQLEDKVQ-NH2 [PJ8]
  time to full degradation by trypsin: ≤ 30 min
